This is an account of results in ChEMBL document CHEMBL1132013, “Synthesis, computer modeling and biological evaluation of novel protein kinase C agonists based on a 7-membered lactam moiety” (Bioorg Med Chem Lett, 1999).

The test system of test [1] is HL-60. Briefly: Inhibition of HL-60 monocyte cell proliferation; Range = 1-8 uM. In kind it is functional. Conditions: Homo sapiens, read-out: ED50 (the source's name).
Test [2] has as its target T1, Protein kinase C alpha type (Homo sapiens, UniProt P17252). The test is described as follows: (§1) Displacement of [3H]PDBu from human recombinant Protein kinase C alpha. Background: In a radioligand displacement assay an active substance lowers the binding of a labelled ligand.
The test system of test [3] is HL-60. Briefly: Inhibition of HL-60 monocyte cell proliferation; Range = 0.3-0.7 uM. In kind it is functional. The settings on record: Homo sapiens, read-out: ED50 (the source's name).
Test [4] deals with T1, Protein kinase C alpha type. The description is as §1. This is another data set of the same source.
The test system of test [5] is HL-60. The test is described as follows: Inhibition of HL-60 monocyte cell proliferation. In kind it is functional. Conditions: Homo sapiens, read-out: ED50 (the source's name).

What is called Ki is the equilibrium dissociation constant of an inhibitor or competing ligand from its target.

Take `CC(C)CCCC(C)[C@H]1CC[C@H]2[C@@H]3CC[C@H]4CC(=O)N[C@H](CO)C[C@]4(C)[C@H]3CC[C@]12C` (some centres undefined): the EC50 with HL-60 [1] stood at 8000 nM. In test [2], the Ki was greater than 500 nM.
For `C[C@@]12CCC[C@H]1[C@@H]1CC[C@H]3CC(=O)N[C@H](CO)C[C@]3(C)[C@H]1CC2`, in that order: 8000 nM and greater than 500 nM.
The corresponding values for `CC(C)CCCC(C)[C@H]1CC[C@H]2[C@@H]3CC[C@H]4CC(=O)N[C@@H](CO)C[C@]4(C)[C@H]3CC[C@]12C` (some centres undefined) are 8000 nM and greater than 500 nM.
Take `CCCCC1(CCCC)CC[C@H]2CC(=O)N[C@H](CO)C[C@]2(C)C1`: the EC50 in the test with HL-60 [3] is 700 nM. The inhibition constant (Ki) in test [4] was 80 nM; in test [2] it was 60 nM.
Consider `CCCCC1(CCCC)CC[C@H]2CC(=O)N[C@@H](CO)C[C@]2(C)C1`, for which the EC50 in the test on HL-60 [3] worked out at 700 nM. The inhibition constant Ki in test [2] came to 190 nM.
On to `CCCC[C@@H]1C(=O)N[C@H](CO)C[C@]2(C)CC(CCCC)(CCCC)CC[C@@H]12`, for which, in the test with HL-60 [5], the EC50 stood at 150 nM. For the same compound, the Ki in test [2] turned out to be 17 nM.
For `CCCCCCCC[C@@H]1C(=O)N[C@H](CO)C[C@]2(C)CC(CCCC)(CCCC)CC[C@@H]12`, in that order: 150 nM and 11 nM.
For `CCCCC1(CCCC)CC[C@H]2[C@H](C)C(=O)N[C@H](CO)C[C@]2(C)C1`, in that order: 150 nM and 21 nM.
Take `C[C@@]12CCC[C@H]1[C@@H]1CC[C@H]3CC(=O)N[C@@H](CO)C[C@]3(C)[C@H]1CC2`: the EC50 in the test on HL-60 [1] is 8000 nM. Besides, the Ki in test [2] was greater than 500 nM.
